From patent US12697316B2, “Combination therapy with acetyl-leucine and miglustat” (INTRABIO LTD., priority 2019, dated 2026)

System: GM2 gangliosidosis patients
Assay: Observational case series in GM2 gangliosidosis patients
Assay type: in vivo, human
Settings: three GM2 gangliosidosis patients
Method: Observational studies in GM2 gangliosidosis Patients: In a prospective observational case series in three patients with genetically proven GM2 gangliosidoses (2 patients with Tay-Sachs disease, 1 patient with Sandhoff disease) the symptomatic effects of ADLL was evaluated. Patients were treated with 0.1 g per kg body weight per day, for at least four weeks and the clinical effects determined using the Scale for the Assessment and Severity of Ataxia (SARA), the 8-meter walk test (8MWT) and the Montreal Cognitive Assessment (MoCA). Consent from all participants was obtained.
A patient with a genetically confirmed diagnosis of Tay-Sachs disease presented with dysarthrophonia, tremor, ataxia of stance and gait, paraparesis, and muscular atrophy. Prior to treatment, the patient required the support of both a caregiver on one side and a wall on the other in order to walk down a corridor. The patient was receiving sodium-valproate (500 mg/d), lithium (450 mg/d), and risperidone (3 mg/d) (medications for clinically diagnosed bipolar disorder), and continued to do so during treatment with N-Acetyl-DL-Leucine. The patient was also receiving physiotherapy, ergotherapy, and logotherapy twice a week.
A patient with a genetically confirmed diagnosis of Tay-Sachs disease presented with ataxia of stance and gait, fine motor impairment, paraparesis of lower extremities and muscular atrophy. They were receiving physiotherapy, ergotherapy and logotherapy and continued to do so during treatment with N-Acetyl-DL-Leucine.
A patient suffering from Sandhoff disease, with muscle hypotrophy, epileptic cramps (tonic-clonic, about 10 seconds, self-limiting), disordered ocular movement and anarthria. Their daily activities were very limited, being unable to eat, wash, or dress themself. They were receiving levetiracetam (1 g/d), lamotrigine (100 mg/d), omeprazole (20 mg/d), and miglustat (300 mg/d), in addition to physiotherapy, ergotherapy and logotherapy, and continued to do so during treatment with N-Acetyl-DL-Leucine.

[1] = 0.1 g per kg body weight per day, baseline vs one month on medication

Structure (SMILES): CC(=O)NC(CC(C)C)C(=O)O (racemic) [ADLL, N-acetyl-DL-leucine]
- improvement reported by patients and caregivers: subjective improvement
- mean improvement of the 8-M-Walking-Test (8MWT) [1]: 17.8%
- mean improvement of the Montreal Cognitive Assessment (MoCA) [1]: 42%
- mean improvement of the Scale for Assessment and Rating of Ataxia (SARA) [1]: 20.3%
